Data on five molecules can be found in ChEMBL document CHEMBL3217664, “Synthesis and biological evaluation of 4-chlorocolchicine derivatives as potent anticancer agents with broad effective dosage ranges” (Medchemcomm, 2012).

The test system of one data set is A549. The data set can be described thus: Cytotoxicity against human A549 cells after 96 hrs by microplate reader analysis. It is filed as functional, cell-based. The note with it: A549, 96 h.
Data set [1] relates to Mus musculus. The data set can be described thus: Toxicity in BALB/c mouse assessed as mortality at 10 mg/kg/day, iv administered on day 1, 5 and 9. It counts as organism-based. On the set-up: route intravenous. The settings on record: in vivo.
Another data set relates to Liver. The data set is described as follows: Metabolic stability in BALB/c mouse liver microsomes at 1 umol/l by LC-MS/MS analysis. It is filed as ADME. The settings on record: 1 µM. (Microsomes from liver hold many membrane-bound enzymes, among them those of drug oxidation.)
Data set [2] concerns Mus musculus. The data set can be described thus: Toxicity in BALB/c mouse assessed as mortality at 5 mg/kg/day, iv administered on day 1, 5 and 9. It is filed as organism-based. On the set-up: route intravenous. The note with it: in vivo.
A further data set deals with HT-29. The data set can be described thus: Cytotoxicity against human HT-29 cells after 96 hrs by microplate reader analysis. It counts as functional, cell-based. The settings on record: HT-29, 96 h.
The subject of data set [3] is HCT-116. The data set can be described thus: Cytotoxicity against human HCT116 cells after 96 hrs by microplate reader analysis. It counts as functional, cell-based. The settings on record: HCT-116, 96 h.
The test system of data set [4] is HCT-116. The data set is described as follows: Antitumor activity against human HCT116 cells xenografted in BALB/c mouse assessed as tumor growth inhibition at 5 mg/kg/day, iv administered on day 1, 5 and 9 relative to control. It is filed as functional. The settings on record: HCT-116, 24 h, read-out: TGI. In general terms: A xenograft is tissue or cells of one species grown in another, often human tumour cells in immunodeficient mice.

Data set [5] relates to HCT-116. The data set is described as follows: Antitumor activity against human HCT116 cells xenografted in BALB/c mouse assessed as tumor growth inhibition at 10 mg/kg/day, iv administered on day 1, 5 and 9 relative to control. It is filed as functional. The settings on record: HCT-116, 24 h, read-out: TGI.
The test system of data set [6] is HCT-116. The data set is described as follows: Antitumor activity against human HCT116 cells xenografted in BALB/c mouse assessed as tumor growth inhibition at 12.5 mg/kg/day, iv administered on day 1, 5 and 9 relative to control. It is filed as functional. The note with it: HCT-116, 24 h, read-out: TGI.
Data set [7] concerns Mus musculus. The data set is described as follows: Toxicity in BALB/c mouse assessed as mortality at 12.5 mg/kg/day, iv administered on day 1, 5 and 9. The note with it: in vivo. The arrangement: route intravenous. It counts as organism-based.
Data set [8] has as its system HCT-116. The data set can be described thus: Antitumor activity against human HCT116 cells xenografted in BALB/c mouse assessed as tumor growth inhibition at 25 mg/kg/day, iv administered on day 1, 5 and 9 relative to control. It counts as functional. The settings on record: HCT-116, 24 h, read-out: TGI.
The subject of data set [9] is HCT-116. The data set is described as follows: Antitumor activity against human HCT116 cells xenografted in BALB/c mouse assessed as tumor growth inhibition at 2.5 mg/kg/day, iv administered on day 1, 5 and 9 relative to control. It is filed as functional. The note with it: HCT-116, 24 h, read-out: TGI.
Data set [10] concerns Mus musculus. The data set can be described thus: Toxicity in BALB/c mouse assessed as mortality at 2.5 mg/kg/day, iv administered on day 1, 5 and 9. It counts as organism-based. On the set-up: route intravenous. The settings on record: in vivo.
The subject of data set [11] is HCT-116. The data set can be described thus: Antitumor activity against human HCT116 cells xenografted in BALB/c mouse assessed as tumor growth inhibition at 40 mg/kg/day, iv administered on day 1, 5 and 9 relative to control. The note with it: HCT-116, 24 h, read-out: TGI. It is filed as functional.
Data set [12] concerns HCT-116. The data set can be described thus: Antitumor activity against human HCT116 cells xenografted in BALB/c mouse assessed as tumor growth inhibition at 20 mg/kg/day, iv administered on day 1, 5 and 9 relative to control. The settings on record: HCT-116, 24 h, read-out: TGI. It is filed as functional.
Data set [13] relates to Mus musculus. The data set is described as follows: Toxicity in BALB/c mouse assessed as mortality at 40 mg/kg/day, iv administered on day 1, 5 and 9. The note with it: in vivo. On the set-up: route intravenous. It counts as organism-based.
The subject of data set [14] is Mus musculus. The data set can be described thus: Toxicity in BALB/c mouse assessed as mortality at 20 mg/kg/day, iv administered on day 1, 5 and 9. It is filed as organism-based. On the set-up: route intravenous. The settings on record: in vivo.
Data set [15] has as its system Mus musculus. The data set is described as follows: Toxicity in BALB/c mouse assessed as mortality at 100 mg/kg/day, iv administered on day 1, 5 and 9. It is filed as organism-based. The arrangement: route intravenous. The note with it: in vivo.
Data set [16] concerns HCT-116. The data set can be described thus: Antitumor activity against human HCT116 cells xenografted in BALB/c mouse assessed as tumor growth inhibition at 50 mg/kg/day, iv administered on day 1, 5 and 9 relative to control. The note with it: HCT-116, 24 h, read-out: TGI. It counts as functional.
In data set [17] the test system is Mus musculus. The data set can be described thus: Toxicity in BALB/c mouse assessed as mortality at 50 mg/kg/day, iv administered on day 1, 5 and 9. It counts as organism-based. The arrangement: route intravenous. The settings on record: in vivo.
Data set [18] has as its system HCT-116. The data set can be described thus: Antitumor activity against human HCT116 cells xenografted in BALB/c mouse assessed as tumor growth inhibition at 100 mg/kg/day, iv administered on day 1, 5 and 9 relative to control. It counts as functional. The note with it: HCT-116, 24 h, read-out: TGI.

Regarding `COc1c(Cl)c2c(c(OC)c1OC)-c1ccc(OC)c(=O)cc1[C@@H](NC(=O)C(F)(F)F)CC2`, the IC50 (usually the concentration that gives 50% inhibition) in the data set on A549 was 1.8 nM; in the data set on HT-29, 1.5 nM; in the data set with HCT-116 [3], 1.5 nM. Also, the Activity entry with Mus musculus [1] and in the data set with Mus musculus [2] was “Non-toxic” throughout. The molecule further came in with a Stability in the data set with Liver of 339 µL/min/mg. For the same molecule, the inhibition in vivo at 5 mg/kg/day in the data set on HCT-116 [4] came out at 30.6%. Besides, the inhibition in vivo at 10 mg/kg/day with HCT-116 [5] was found to be 62.7%.

Regarding `CCC(=O)N[C@H]1CCc2c(Cl)c(OC)c(OC)c(OC)c2-c2ccc(OC)c(=O)cc21`, the half-maximal inhibitory concentration (IC50) in the data set on A549 came out at 7.8 nM; in the data set on HT-29, 3.3 nM; with HCT-116 [3] it was 7.5 nM. The Stability in the data set with Liver is 302 µL/min/mg. Also, the inhibition in vivo at 12.5 mg/kg/day in the data set on HCT-116 [6] stood at 57.3%. Also, the Activity entry in the data set on Mus musculus [7] was “Non-toxic”. The inhibition in vivo at 25 mg/kg/day in the data set on HCT-116 [8] is 76.1%.

Consider `COc1c(Cl)c2c(c(OC)c1OC)-c1ccc(OC)c(=O)cc1[C@@H](NC(=O)c1cccc(N(C)C)c1)CC2`, for which the concentration for half-maximal inhibition (IC50) in the data set with A549 is 6.4 nM; in the data set on HT-29, 1.4 nM; in the data set on HCT-116 [3] it was 1.6 nM. Besides, the Stability in the data set with Liver is 122 µL/min/mg. The Activity entry with Mus musculus [2] and in the data set on Mus musculus [10] was “Non-toxic” in each case. Besides, in the data set on HCT-116 [9], the inhibition in vivo at 2.5 mg/kg/day worked out at 31.4%. Besides, in the data set with HCT-116 [4], the inhibition in vivo at 5 mg/kg/day worked out at 25.3%.

With `COc1c(Cl)c2c(c(OC)c1OC)-c1ccc(OC)c(=O)cc1[C@@H](NC(=O)CO)CC2`, the IC50 was 16.3 nM in the data set with A549, 8 nM in the data set on HT-29 and 8.2 nM in the data set with HCT-116 [3]. For the same molecule, in the data set with HCT-116 [11], the inhibition in vivo at 40 mg/kg/day was 66.7%. The inhibition in vivo at 20 mg/kg/day in the data set on HCT-116 [12] amounted to 43.6%. Also, the Stability in the data set on Liver is 1 µL/min/mg. In addition, the Activity result with Mus musculus [13] and with Mus musculus [14] was “Non-toxic” in each case.

With `COc1c(Cl)c2c(c(OC)c1OC)-c1ccc(OC)c(=O)cc1[C@@H](NC(=O)C(C)(C)O)CC2`, the IC50 with A549 is 19.4 nM; in the data set with HT-29, 7.8 nM; with HCT-116 [3], 8.1 nM. Moreover, the Activity result with Mus musculus [15] and in the data set with Mus musculus [17] was “Non-toxic” each time. In the data set with Liver, the Stability came to 5 µL/min/mg. Also, the inhibition in vivo at 50 mg/kg/day in the data set with HCT-116 [16] came out at 58.5%. In addition, the inhibition in vivo at 100 mg/kg/day in the data set with HCT-116 [18] stood at 67.3%.
